Results reported in patent US20260335305A1, “METHODS OF USING ITRACONAZOLE DRY POWDERS” (Pulmatrix Operating Company, Inc., priority 2022, published 2026).
Read-outs that look alike come from different tables or passages of the source.

Columns and labels:
[1] = Itraconazole subparticle size of milled suspension; assay type: physicochemical; details: water and polysorbate 80, milled at 1800 rpm for one hour
Method: Particle Size Reduction using Low Energy Wet Milling. One technique for reducing the particle size of the itraconazole was via low energy wet milling (also known as roller milling, or jar milling). Suspensions of the itraconazole were prepared in an anti-solvent, which can be water, or any solvent in which the active agent is not appreciably soluble. Stabilizers, which can be, but are not limited to, non-ionic surfactants or amphiphilic polymers, are then added to the suspension along with milling media, which can be, but are not limited to, spherical with high wear resistance and in the size range from 0.03 to 0.70 millimeters in diameter. The vessels containing the suspensions are then rotated using a jar mill (US Stoneware, East Palestine, OH USA) while taking samples periodically to assess particle size (LA-950, HORIBA, Kyoto, Japan).
Particle Size Reduction using High Energy Wet Milling: Another technique for reducing the particle size of the itraconazole was via high-energy wet milling using a rotor-stator, or agitated media mill. Suspensions of the itraconazole were prepared in an anti-solvent, which can be water, or any solvent in which the active agent is not appreciably soluble. […]

[2] = cited from earlier work; for AUC0-24 h / Accumulation ratio AUC0-24 h / Accumulation ratio Cmax / Cmax / Kel / Tmax: inhaled Formulation I
CYP3A4 = details: role: inhibitor; unbound Ki, Simcyp V19 file; cited from earlier work
[3] = single inhaled dose of 20 mg of dry powder; cited from earlier work
[4] = cited from earlier work; for RB / fu: Simcyp V19 file
[5] = Day 1, 35 mg inhaled Formulation I QD
[6] = Day 14, 35 mg inhaled Formulation I QD

Row | Structure (SMILES) | AUC0-24 h, observed mean [2, 5] | Cmax, observed mean [2, 5] | AUC0-24 h, observed mean [2, 6] | Cmax, observed mean [2, 6] | AUC0-24 h ([2]; 10 mg) | Accumulation ratio AUC0-24 h ([2]; 10 mg) | Accumulation ratio Cmax ([2]; 10 mg) | Cmax ([2]; 10 mg) | Kel ([2]; 10 mg) | Tmax ([2]; 10 mg) | AUC0-24 h ([2]; 20 mg) | Accumulation ratio AUC0-24 h ([2]; 20 mg) | Accumulation ratio Cmax ([2]; 20 mg) | Cmax ([2]; 20 mg) | Kel ([2]; 20 mg) | Tmax ([2]; 20 mg) | AUC0-24 h ([2]; 35 mg QD for 14 days) | Accumulation ratio AUC0-24 h ([2]; 35 mg QD for 14 days) | Accumulation ratio Cmax ([2]; 35 mg QD for 14 days) | Cmax ([2]; 35 mg QD for 14 days) | further results
1 | CCC(C)n1ncn(-c2ccc(N3CCN(c4ccc(OCC5COC(Cn6cncn6)(c6ccc(Cl)cc6Cl)O5)cc4)CC3)cc2)c1=O (centres unmarked) [Itraconazole, itraconazole] | […] | 5.23 ng/mL | […] | 15.2 ng/mL | […] | […] | […] | […] | […] | […] | […] | […] | […] | […] | […] | […] | […] | […] | […] | 15.2 (49.3) ng/mL | final median particle size (Dv(50)) of the milled suspension [1]: […]; Kel ([2]; 35 mg QD for 14 days): […]; Tmax ([2]; 35 mg QD for 14 days): […]; Ki, u, ITZ (CYP3A4): […]; lung exposure [3]: lung exposures that would be considered therapeutic; RB [4]: […]; fu [4]: […]
2 | Cc1ncc2n1-c1ccc(Cl)cc1C(c1ccccc1F)=NC2 [Midazolam, midazolam] | – | – | – | – | – | – | – | – | – | – | – | – | – | – | – | – | – | – | – | – | fm ([4]; Simcyp V19 Midazolam File): 0.84
3 | CC(O)C(C)n1ncn(-c2ccc(N3CCN(c4ccc(OCC5COC(Cn6cncn6)(c6ccc(Cl)cc6Cl)O5)cc4)CC3)cc2)c1=O (centres unmarked) [OH-itraconazole] | 38.2 ng·h/mL | 2.10 ng/mL | 168 ng·h/mL | 8.68 ng/mL | 42.4 (26.1) ng h/mL | 3.8 | 3.5 | 2.25 (25.3) ng/mL | 0.0263 h⁻¹ | 6 h | 128 (56.1) ng h/mL | 4.4 | 4.2 | 6.43 (54.7) ng/mL | 0.0223 h⁻¹ | 6 h | 169 (116) ng h/mL | 4.5 | 4.2 | 8.68 (91.0) ng/mL | Kel ([2]; 35 mg QD for 14 days): 0.0248 h⁻¹; Tmax ([2]; 35 mg QD for 14 days): 8 h; Ki, u, ITZ (CYP3A4): 2.3 nM; RB [4]: 0.58; fu [4]: 0.016
